The values below come from ChEMBL document CHEMBL1131962, “A new class of selective and potent inhibitors of neuronal nitric oxide synthase” (Bioorg Med Chem Lett, 1999).

For orientation: IC50 means the concentration that gives 50% inhibition. A word on the Ki: it is a measure of affinity in units of concentration, obtained from inhibition or displacement. The low end stands for tighter binding, the high end for weaker binding. As a reminder, the Cmax is the highest concentration seen after dosing. As usually defined, the half-life is the time needed for the level to fall by half in the phase considered. A higher half-life goes with slow decline.

Data set [1] addresses T1, Nitric oxide synthase 3 (Homo sapiens, UniProt P29474).
T1 sequence (P29474 whole entry): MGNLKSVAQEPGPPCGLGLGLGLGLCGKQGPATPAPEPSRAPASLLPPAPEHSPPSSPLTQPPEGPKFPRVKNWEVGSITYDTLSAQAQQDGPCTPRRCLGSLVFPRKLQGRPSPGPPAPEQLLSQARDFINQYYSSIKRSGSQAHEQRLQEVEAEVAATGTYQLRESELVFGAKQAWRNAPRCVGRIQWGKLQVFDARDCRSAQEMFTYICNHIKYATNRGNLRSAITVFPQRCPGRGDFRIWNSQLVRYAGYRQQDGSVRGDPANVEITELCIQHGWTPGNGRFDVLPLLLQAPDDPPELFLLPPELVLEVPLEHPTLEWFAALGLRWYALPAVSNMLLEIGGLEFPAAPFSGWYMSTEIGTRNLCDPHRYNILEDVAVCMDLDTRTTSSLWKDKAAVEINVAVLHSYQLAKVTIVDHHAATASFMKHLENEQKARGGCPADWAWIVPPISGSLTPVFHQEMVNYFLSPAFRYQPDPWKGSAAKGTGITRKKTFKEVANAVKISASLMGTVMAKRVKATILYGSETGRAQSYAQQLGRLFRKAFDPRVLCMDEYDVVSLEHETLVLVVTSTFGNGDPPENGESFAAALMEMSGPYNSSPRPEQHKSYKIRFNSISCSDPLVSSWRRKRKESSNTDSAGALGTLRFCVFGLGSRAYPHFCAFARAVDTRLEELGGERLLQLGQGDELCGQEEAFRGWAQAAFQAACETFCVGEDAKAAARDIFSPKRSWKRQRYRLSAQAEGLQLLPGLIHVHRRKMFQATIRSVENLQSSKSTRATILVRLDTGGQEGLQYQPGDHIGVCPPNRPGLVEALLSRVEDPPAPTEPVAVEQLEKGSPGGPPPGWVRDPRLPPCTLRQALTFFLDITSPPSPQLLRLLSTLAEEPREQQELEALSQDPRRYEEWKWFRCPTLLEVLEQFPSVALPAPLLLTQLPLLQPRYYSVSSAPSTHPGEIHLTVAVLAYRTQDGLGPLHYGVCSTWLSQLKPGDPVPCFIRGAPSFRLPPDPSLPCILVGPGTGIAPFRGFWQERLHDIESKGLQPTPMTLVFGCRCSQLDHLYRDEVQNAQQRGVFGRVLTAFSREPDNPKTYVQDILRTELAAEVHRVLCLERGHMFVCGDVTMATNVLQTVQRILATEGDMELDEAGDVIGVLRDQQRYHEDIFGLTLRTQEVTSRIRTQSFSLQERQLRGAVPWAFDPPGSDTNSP
The data set is described as follows: Inhibitory activity against human endothelial nitric oxide synthase (eNOS).

In data set [2] the target is Nitric oxide synthase 1 (Homo sapiens, UniProt P29475). The data set is described as follows: Inhibitory activity against human neuronal nitric oxide synthase (nNOS).
Nitric oxide synthase 1 (Homo sapiens, UniProt P29475), sequence (P29475 whole entry): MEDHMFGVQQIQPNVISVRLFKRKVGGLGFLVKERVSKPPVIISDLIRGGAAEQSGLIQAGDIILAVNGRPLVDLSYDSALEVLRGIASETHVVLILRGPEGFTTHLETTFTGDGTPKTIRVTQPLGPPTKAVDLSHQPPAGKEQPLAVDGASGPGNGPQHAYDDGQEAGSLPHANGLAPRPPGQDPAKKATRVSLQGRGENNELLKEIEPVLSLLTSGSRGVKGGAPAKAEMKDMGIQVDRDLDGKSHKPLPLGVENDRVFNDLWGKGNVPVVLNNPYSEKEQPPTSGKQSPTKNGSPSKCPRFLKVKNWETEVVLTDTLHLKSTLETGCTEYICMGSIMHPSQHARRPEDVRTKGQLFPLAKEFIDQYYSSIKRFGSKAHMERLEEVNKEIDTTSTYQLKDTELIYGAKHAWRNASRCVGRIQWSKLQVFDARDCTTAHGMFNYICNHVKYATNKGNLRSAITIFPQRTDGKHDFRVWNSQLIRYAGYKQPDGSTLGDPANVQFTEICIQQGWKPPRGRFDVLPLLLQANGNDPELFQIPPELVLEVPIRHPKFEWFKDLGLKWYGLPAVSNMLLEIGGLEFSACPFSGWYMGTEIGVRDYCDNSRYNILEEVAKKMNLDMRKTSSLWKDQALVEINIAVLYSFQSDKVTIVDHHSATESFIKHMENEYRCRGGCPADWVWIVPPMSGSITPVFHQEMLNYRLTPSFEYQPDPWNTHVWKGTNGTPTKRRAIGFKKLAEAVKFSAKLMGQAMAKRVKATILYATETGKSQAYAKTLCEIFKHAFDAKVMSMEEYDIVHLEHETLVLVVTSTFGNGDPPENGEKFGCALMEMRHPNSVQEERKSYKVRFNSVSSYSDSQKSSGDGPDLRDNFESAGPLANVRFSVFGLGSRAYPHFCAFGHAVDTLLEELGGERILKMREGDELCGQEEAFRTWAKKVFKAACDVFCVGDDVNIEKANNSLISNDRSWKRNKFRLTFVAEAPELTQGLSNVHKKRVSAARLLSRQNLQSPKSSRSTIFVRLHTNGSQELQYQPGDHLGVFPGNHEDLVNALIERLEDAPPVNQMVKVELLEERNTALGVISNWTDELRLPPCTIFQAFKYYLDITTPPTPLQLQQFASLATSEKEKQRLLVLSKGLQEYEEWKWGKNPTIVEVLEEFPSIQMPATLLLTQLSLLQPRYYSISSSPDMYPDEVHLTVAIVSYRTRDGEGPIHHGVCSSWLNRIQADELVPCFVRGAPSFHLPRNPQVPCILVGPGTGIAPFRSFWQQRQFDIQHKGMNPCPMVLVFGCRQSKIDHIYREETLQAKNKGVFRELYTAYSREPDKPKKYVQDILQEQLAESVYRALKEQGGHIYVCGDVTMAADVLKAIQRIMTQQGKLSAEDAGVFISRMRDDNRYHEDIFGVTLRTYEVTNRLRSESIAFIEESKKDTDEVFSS
In data set [3] the target is Nitric oxide synthase 1 (Rattus norvegicus, UniProt P29476). The data set is described as follows: Inhibitory activity against rat neuronal nitric oxide synthase (nNOS).
Nitric oxide synthase 1 (Rattus norvegicus, UniProt P29476), sequence (P29476 whole entry): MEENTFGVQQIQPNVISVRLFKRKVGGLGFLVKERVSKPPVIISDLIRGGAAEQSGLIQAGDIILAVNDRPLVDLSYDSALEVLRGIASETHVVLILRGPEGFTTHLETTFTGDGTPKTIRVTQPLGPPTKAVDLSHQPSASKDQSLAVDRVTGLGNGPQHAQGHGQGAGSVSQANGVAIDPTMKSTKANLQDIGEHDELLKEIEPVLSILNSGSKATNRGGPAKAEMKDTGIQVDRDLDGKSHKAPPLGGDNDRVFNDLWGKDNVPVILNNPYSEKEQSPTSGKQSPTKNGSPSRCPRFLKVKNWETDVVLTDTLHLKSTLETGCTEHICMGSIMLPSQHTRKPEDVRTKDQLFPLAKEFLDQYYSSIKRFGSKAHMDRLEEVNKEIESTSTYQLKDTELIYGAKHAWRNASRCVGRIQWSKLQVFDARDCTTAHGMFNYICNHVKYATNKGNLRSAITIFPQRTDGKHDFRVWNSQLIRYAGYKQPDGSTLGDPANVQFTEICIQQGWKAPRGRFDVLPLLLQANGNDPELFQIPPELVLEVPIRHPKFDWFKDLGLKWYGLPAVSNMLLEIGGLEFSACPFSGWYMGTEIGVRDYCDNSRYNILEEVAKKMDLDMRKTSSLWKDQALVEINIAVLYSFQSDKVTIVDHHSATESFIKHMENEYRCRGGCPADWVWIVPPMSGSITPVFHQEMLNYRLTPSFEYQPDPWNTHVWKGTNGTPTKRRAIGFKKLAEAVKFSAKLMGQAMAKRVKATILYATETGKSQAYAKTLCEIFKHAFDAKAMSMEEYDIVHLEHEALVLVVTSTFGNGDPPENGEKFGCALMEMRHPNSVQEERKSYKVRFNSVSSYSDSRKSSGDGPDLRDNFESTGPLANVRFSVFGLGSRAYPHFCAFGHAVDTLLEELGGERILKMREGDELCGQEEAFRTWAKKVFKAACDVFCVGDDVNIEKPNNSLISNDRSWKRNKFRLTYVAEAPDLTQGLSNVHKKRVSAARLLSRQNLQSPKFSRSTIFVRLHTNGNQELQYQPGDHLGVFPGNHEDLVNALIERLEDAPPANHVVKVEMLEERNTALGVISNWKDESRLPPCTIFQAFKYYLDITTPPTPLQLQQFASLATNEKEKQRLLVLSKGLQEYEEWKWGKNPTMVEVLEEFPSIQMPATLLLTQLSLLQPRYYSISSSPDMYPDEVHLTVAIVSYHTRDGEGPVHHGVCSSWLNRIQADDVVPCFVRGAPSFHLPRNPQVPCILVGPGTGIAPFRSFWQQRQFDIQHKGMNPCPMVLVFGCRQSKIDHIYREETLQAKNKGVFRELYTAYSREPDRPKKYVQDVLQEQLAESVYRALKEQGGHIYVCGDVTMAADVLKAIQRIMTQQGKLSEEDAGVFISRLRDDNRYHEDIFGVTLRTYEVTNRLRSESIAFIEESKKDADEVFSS
The target of data set [4] is T2, 5-hydroxytryptamine receptor 1A (Homo sapiens, UniProt P08908).
T2 sequence (P08908 whole entry): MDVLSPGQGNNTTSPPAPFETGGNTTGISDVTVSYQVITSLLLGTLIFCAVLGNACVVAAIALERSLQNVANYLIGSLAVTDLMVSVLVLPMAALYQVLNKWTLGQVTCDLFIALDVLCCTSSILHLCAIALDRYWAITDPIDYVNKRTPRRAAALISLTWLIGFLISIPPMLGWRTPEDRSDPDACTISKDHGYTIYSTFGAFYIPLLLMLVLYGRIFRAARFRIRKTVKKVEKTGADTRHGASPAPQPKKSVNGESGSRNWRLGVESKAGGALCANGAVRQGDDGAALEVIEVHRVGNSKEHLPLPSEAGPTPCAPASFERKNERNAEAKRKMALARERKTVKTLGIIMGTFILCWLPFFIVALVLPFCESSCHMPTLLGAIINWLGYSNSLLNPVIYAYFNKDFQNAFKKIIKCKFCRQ
The data set is described as follows: Binding affinity of compound to human 5-hydroxytryptamine 1A receptor.

Data set [5] has as its target 5-hydroxytryptamine receptor 2A (Homo sapiens, UniProt P28223). The data set is described as follows: Binding affinity of compound to human 5-hydroxytryptamine 2A receptor.
Data set [6] has as its target T3, D(2) dopamine receptor (Homo sapiens, UniProt P14416). The data set is described as follows: Binding ability of compound to human Dopamine receptor D2.
Data set [7] concerns the target T4, Muscarinic acetylcholine receptor M2 (Homo sapiens, UniProt P08172).
T4 sequence (P08172 whole entry): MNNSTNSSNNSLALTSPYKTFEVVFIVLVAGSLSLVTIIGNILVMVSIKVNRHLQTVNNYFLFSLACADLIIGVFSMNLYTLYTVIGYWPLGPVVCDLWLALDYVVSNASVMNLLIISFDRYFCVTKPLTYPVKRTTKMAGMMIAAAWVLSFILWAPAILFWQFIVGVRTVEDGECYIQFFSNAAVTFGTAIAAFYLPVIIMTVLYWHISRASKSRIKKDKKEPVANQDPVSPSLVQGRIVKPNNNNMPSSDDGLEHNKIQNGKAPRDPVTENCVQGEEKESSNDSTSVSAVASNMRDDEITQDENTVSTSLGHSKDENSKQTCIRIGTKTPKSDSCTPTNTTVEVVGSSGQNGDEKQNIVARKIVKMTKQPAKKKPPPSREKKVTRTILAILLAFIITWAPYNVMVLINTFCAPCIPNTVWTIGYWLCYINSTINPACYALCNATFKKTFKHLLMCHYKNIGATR
The data set is described as follows: Binding affinity of compound to m2 muscarinic receptor.

The nature of data set [8]: Maximum concentration in CSF at 30 min following 24 mg/kg subcutaneous dose in rats. It counts as ADME, organism-based, Cerebrospinal fluid. Also noted: dose 24 mg/kg, route subcutaneous. Particulars: rat, sc.
Data set [9] in a line: Maximum concentration in whole brain at 30 min following 24 mg/kg subcutaneous dose in rats. Format: ADME, organism-based. Also noted: dose 24 mg/kg, route subcutaneous. Particulars: rat, sc.
Data set [10] concerns the target T3, D(2) dopamine receptor. The data set is described as follows: Binding affinity of compound to Dopamine receptor D2.
For data set [11], the target named is T5, Muscarinic acetylcholine receptor M4 (Homo sapiens, UniProt P08173).
T5 sequence (P08173 whole entry): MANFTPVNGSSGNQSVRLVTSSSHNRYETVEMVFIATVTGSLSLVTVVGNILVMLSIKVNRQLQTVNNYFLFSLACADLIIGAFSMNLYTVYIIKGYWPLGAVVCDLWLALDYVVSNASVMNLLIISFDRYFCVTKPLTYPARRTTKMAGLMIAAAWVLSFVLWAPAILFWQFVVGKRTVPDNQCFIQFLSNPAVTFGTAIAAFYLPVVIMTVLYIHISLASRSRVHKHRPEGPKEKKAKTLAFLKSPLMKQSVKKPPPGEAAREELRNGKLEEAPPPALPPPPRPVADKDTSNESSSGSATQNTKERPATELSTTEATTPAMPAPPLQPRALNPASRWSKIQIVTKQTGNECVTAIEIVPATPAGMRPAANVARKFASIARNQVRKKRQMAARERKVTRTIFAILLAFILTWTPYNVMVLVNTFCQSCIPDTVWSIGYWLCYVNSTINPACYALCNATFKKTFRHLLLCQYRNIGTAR
The data set is described as follows: Binding ability of compound to m4 muscarinic receptor.

Data set [12] in a line: Maximum concentration in plasma at 30 min following 24 mg/kg subcutaneous dose in rats. It counts as ADME, organism-based. Details: dose 24 mg/kg, route subcutaneous. Particulars: rat, sc.
The nature of data set [13]: Half life in rats. It counts as ADME, organism-based. Particulars: rat, in vivo.

T3 sequence (P14416 whole entry): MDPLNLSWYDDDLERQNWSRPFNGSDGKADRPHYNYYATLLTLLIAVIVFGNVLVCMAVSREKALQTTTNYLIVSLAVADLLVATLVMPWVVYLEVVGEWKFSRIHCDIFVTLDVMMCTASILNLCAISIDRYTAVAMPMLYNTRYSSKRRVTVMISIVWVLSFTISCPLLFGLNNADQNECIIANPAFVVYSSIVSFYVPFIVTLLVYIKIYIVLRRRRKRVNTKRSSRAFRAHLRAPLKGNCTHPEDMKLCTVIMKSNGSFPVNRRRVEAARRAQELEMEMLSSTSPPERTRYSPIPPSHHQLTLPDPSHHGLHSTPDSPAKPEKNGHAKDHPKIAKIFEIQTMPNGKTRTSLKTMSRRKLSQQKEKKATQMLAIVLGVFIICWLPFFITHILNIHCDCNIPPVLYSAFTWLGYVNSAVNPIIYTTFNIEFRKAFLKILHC
5-hydroxytryptamine receptor 2A, sequence (P28223 whole entry): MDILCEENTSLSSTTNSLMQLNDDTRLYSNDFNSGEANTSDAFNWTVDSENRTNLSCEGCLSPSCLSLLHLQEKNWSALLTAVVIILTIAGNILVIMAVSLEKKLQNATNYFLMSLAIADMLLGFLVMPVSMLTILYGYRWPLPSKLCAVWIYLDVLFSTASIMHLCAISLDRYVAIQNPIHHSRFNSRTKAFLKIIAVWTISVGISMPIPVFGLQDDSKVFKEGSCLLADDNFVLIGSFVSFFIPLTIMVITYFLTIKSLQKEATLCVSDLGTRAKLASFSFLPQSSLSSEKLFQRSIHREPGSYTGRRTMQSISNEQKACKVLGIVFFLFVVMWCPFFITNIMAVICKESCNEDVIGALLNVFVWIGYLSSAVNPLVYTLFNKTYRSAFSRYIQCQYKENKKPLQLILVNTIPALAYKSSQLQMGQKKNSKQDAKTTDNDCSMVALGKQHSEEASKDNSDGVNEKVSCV

As for `Nc1cccc(-c2ccc(CCN3CCN(CCc4ccccc4)CC3)cc2)n1`, the results for the IC50 in data set [1], in data set [2] and in data set [3] were 448 nM, 264 nM and 247 nM, respectively.
Take `CC(C)CN1CCN(CCc2ccc(-c3cccc(N)n3)cc2)CC1`: the IC50 stood at 372 nM in data set [1], 350 nM in data set [2] and 193 nM in data set [3].
The corresponding values for `CC(C)NC(=O)CN1CCN(CCc2ccc(-c3cccc(N)n3)cc2)CC1` are 815 nM, 330 nM and 256 nM.
Consider `Nc1cccc(-c2ccc(CCN3CCN(c4cccc5cccnc45)CC3)cc2)n1`, for which the results for the Ki in data set [4], in [5] and in data set [6] were 3 nM, 14 nM and 11 nM, respectively. The IC50 in data set [1] turned out to be 825 nM; in data set [2] it was 212 nM; in [3], 130 nM.
With `Nc1cccc(-c2ccc(CCN3CCN(C(=O)Cc4ccccc4)CC3)cc2)n1`, the half-inhibitory concentration (IC50) worked out at 685 nM in data set [1], 137 nM in data set [2] and 108 nM in [3].
Take `Nc1cccc(-c2ccc(CCN3CCN(CC(=O)c4ccccc4)CC3)cc2)n1`: the Ki in [7] was found to be 320 nM; in data set [11], 590 nM. Further, the values for the Cmax in data set [8], in data set [9] and in [12] were 450 ng/mL, 11000 ng/mL and 1700 ng/mL, respectively. In addition, the IC50 in [10] is > 10000 nM; in data set [1], 887 nM; in [2] it was 140 nM; in data set [3], 127 nM. Besides, the half-life in [13] was 3.6 h.
As for `O=[N+]([O-])c1cccc2cn[nH]c12` [7-NITROINDAZOLE], in [2], the IC50 was 2870 nM.
